Results reported in patent publication US4939125A, “Acyl derivatives of urdamycin A, their preparation and their use” (Hoechst Aktiengesellschaft, priority 1986, dated 1990).
Converted amounts (≈) assume the structure as drawn.

How the values were obtained:
Assay type in all cases: cell-based
L 1210 leukemia cells [1] = test: In vitro cytostatic activity, colony formation (Hamburger and Salmon), 1-hour incubation; conditions: L 1210, 1 hour incubation at 37° C., then washed and plated, carried out 4 times, deviation less than 15%; for IC50: Mus musculus, L1210, read-out: IC50, Strain test, 1 hour
Procedure: (§1) The experiment was carried out in accordance with the process of Hamburger and Salmon [New Engl. J. Med. 298, 1321-1327 (1978)]. The medium was replaced by McCoy 5A, and the number of cells was reduced to 5×10^2 cells/plate.
In the test, the cells were incubated at 37° C. for 1 hour at various concentrations of the test substance. The cells were then washed twice with McCoy 5A solution and subsequently applied to agar plates in accordance with the method of Hamburger and Salmon. The cells were subsequently cultivated as described above, and the number of cell colonies was determined (evaluation as in a).
(§2) The IC50 value for continuous and 1-hour incubation was determined from the dose/action curve.
(§3) In all cases, the experiments were carried out 4 times. The deviation in the results was less than 15%.

L 1210 tumor cells = test: Proliferation experiment (MTT); conditions: carried out 4 times, deviation less than 15%; for IC50: Mus musculus, L1210, L 1210, 72 hours at 37° C., read-out: IC50, Proliferation test
Procedure: L 1210 tumor cells at the exponential growth phase (5×10^3 cells/ml, Roswell Park Memorial Institute (RPMI) medium) were incubated in a microtiter plate with […] recesses for a period of 72 hours at 37° C., 5% of CO2 and 95% relative atmospheric humidity and various concentrations of the test substances from Examples 1 to 5 and also 5',3B,4B,4C,8-penta-O-acetylurdamycin A. After 65 hours, 50 μl of 3-(4,5-dimethylthiazol-2-yl)-2,5-diphenyltetrazolium bromide (MTT) (2.5 mg/ml of MIT in phosphate buffer saline (PBS)) were added. The MTT was reduced by living cells into the red, water-insoluble dyestuff formazan. After a further 7 hours, the supernatant medium was carefully removed. Formazan was dissolved by adding 100 μl of dimethyl sulfoxide per recess and subsequently shaking gently. The extinction of each recess was determined using a multisan 340 CC photometer (Messrs. Flow) at 491 nm. The results were determined from the extinction ratio of cells with test substance to cells without test substance.
as §3

L 1210 leukemia cells [2] = test: In vitro cytostatic activity, colony formation (Hamburger and Salmon), continuous incubation; conditions: L 1210, continuous incubation, 5 to 7 days at 37° C., colonies from 60 μm, carried out 4 times, deviation less than 15%; for IC50: Mus musculus, L1210, read-out: IC50, Strain test, continuous
Procedure: as §1
A continuous incubation of cells with various concentrations of the test substance from Examples 1 to 5 and 5',3B,4B,4C,8-penta-O-acetylurdamycin A was carried out. The compounds to be tested were applied to the agar plates before plating-out the cell cultures. The cell cultures then grew for 5 to 7 days in the incubation in an atmosphere of 5% of CO2, 20% of O2 and 95% relative atmospheric humidity at 37° C. After this time, the number of cell colonies having a diameter from 60 μm was determined (in %) relative to the number of cell colonies which had grown in comparison without test substance.
as §2, §3

| IC50 (L 1210 leukemia cells [1]) [µg/mL] | IC50 (L 1210 tumor cells) [µg/mL] | IC50 (L 1210 leukemia cells [2]) [µg/mL] | IC50, Strain test, 1 hour (L 1210 leukemia cells [1]) [µg/mL] | IC50, Strain test, continuous (L 1210 leukemia cells [2]) [µg/mL] | IC50, Proliferation test (L 1210 tumor cells; L 1210, 72 hours at 37° C.) [µg/mL] | Molecule |
| --- | --- | --- | --- | --- | --- | --- |
| 0.26 (≈ 0.268 µM) | < 1 | – | – | – | – | CCCCCCCC(=O)OC1CC(OC2CCC(OC3CC(c4ccc5c(c4O)C(=O)C4=C(C5=O)C5(OC6CCC(O)C(C)O6)C(=O)CC(C)(O)CC5(O)C=C4)OC(C)C3O)OC2C)OC(C)C1O (stereo not drawn) [3B-O-Octanoylurdamycin A] |
| 2.2 (≈ 2.48 µM) | < 1 | 0.28 (≈ 0.316 µM) | – | – | – | CC(=O)OC1CC(OC2CCC(OC3CC(c4ccc5c(c4O)C(=O)C4=C(C5=O)C5(OC6CCC(O)C(C)O6)C(=O)CC(C)(O)CC5(O)C=C4)OC(C)C3O)OC2C)OC(C)C1O (stereo not drawn) [3B-O-Acetylurdamycin A, 3B-O-acetylurdamycin A] |
| 0.09 (≈ 0.0927 µM) | < 1 | – | – | – | – | CCCCCCCC(=O)OC1C(O)CC(OC2CCC(OC3CC(c4ccc5c(c4O)C(=O)C4=C(C5=O)C5(OC6CCC(O)C(C)O6)C(=O)CC(C)(O)CC5(O)C=C4)OC(C)C3O)OC2C)OC1C (stereo not drawn) [4B-O-Octanoylurdamycin A] |
| 0.85 (≈ 0.915 µM) | < 1 | 0.13 (≈ 0.14 µM) | – | – | – | CC(=O)OC1CCC(OC23C(=O)CC(C)(O)CC2(O)C=CC2=C3C(=O)c3ccc(C4CC(OC5CCC(OC6CC(O)C(OC(C)=O)C(C)O6)C(C)O5)C(O)C(C)O4)c(O)c3C2=O)OC1C (stereo not drawn) [4B,4C-Di-O-acetylu. A, 4B,4C-di-O-acetylurdamycin A] |
| – | – | – | 1.1 | 0.4 | < 1 | 3B,4B,8-tri-O-acetylurdamycin A [3B,4B,8-Tri-O-acetylu. A] |
| 0.25 (≈ 0.247 µM) | < 1 | 0.078 (≈ 0.077 µM) | – | – | – | CC(=O)OC1CCC(OC23C(=O)CC(C)(O)CC2(O)C=CC2=C3C(=O)c3ccc(C4CC(OC5CCC(OC6CC(OC(C)=O)C(OC(C)=O)C(C)O6)C(C)O5)C(OC(C)=O)C(C)O4)c(O)c3C2=O)OC1C (stereo not drawn) [5',3B,4B,4C-Tetra-O-acetylu. A, 5',3B,4B,4C-tetra-O-acetylurdamycin A] |
| 0.12 (≈ 0.114 µM) | < 1 | 0.042 (≈ 0.0398 µM) | – | – | – | CC(=O)Oc1c(C2CC(OC3CCC(OC4CC(OC(C)=O)C(OC(C)=O)C(C)O4)C(C)O3)C(OC(C)=O)C(C)O2)ccc2c1C(=O)C1=C(C2=O)C2(OC3CCC(OC(C)=O)C(C)O3)C(=O)CC(C)(O)CC2(O)C=C1 (stereo not drawn) [Penta-O-acetylu. A, 5',3B,4B,4C,8-penta-O-acetylurdamycin A, reference compound] |
| – | < 1 | 0.075 (≈ 0.074 µM) | – | – | – | CC(=O)Oc1c(C2CC(OC3CCC(OC4CC(OC(C)=O)C(OC(C)=O)C(C)O4)C(C)O3)C(OC(C)=O)C(C)O2)ccc2c1C(=O)C1=C(C2=O)C2(OC3CCC(O)C(C)O3)C(=O)CC(C)(O)CC2(O)C=C1 (stereo not drawn) [5',3B,4B,8-Tetra-O-acetylu. A, 5',3B,4B,8-tetra-O-acetylurdamycin A] |
| 0.35 (≈ 0.377 µM) | < 1 | 0.11 (≈ 0.118 µM) | – | – | – | CC(=O)OC1CC(OC2CCC(OC3CC(c4ccc5c(c4O)C(=O)C4=C(C5=O)C5(OC6CCC(O)C(C)O6)C(=O)CC(C)(O)CC5(O)C=C4)OC(C)C3O)OC2C)OC(C)C1OC(C)=O (stereo not drawn) [3B,4B-Di-O-acetylu. A, 3B,4B-di-O-acetylurdamycin A] |
